# Test results reported in US20220411381A1, “PYRIMIDINEDIONE DERIVATIVES” (Bayer Aktiengesellschaft, priority 2019, published 2022).
# Like-named read-outs stand apart in the source and are kept apart here.
# What was measured:
# U87-MG cells = assay: In vitro assay 2: BCAT cellular assay, leucine in medium of U87-MG cells; format: cell-based; conditions: 24 hours incubation, leucine level in medium (LeuDH/diaphorase/resazurin readout)
# Protocol: (§1) In Vitro Assay 2: BCAT Cellular Assay
# (§2) Levels of leucine were measured in medium of different tumor cell lines. The enzyme BOAT (Branched chain amino acid transferase) catalyzes the consumption of leucine.
# (§3) Cells (U87-MG and MDA-MB231 from ATCC) were grown in Dulbecco's Modified Eagle Medium (DMEM) containing 10% fetal calf serum. They were harvested by trypsin and seeded into 96-well plates. Cells were incubated overnight at 37° C. in an atmosphere containing 5% carbon dioxide. The next day test compounds were added to each cell well. The final concentration of dimethylsulfoxide (DMSO) was 0.1% and DMSO controls were included. The plates were then placed in an incubator for 24 hours.
# (§4) Leucine was measured in an enzymatic readout with leucine dehydrogenase (LeuDH) and diaphorase. Medium is deproteinized with perchloric acid. 30 μl of 1 M aqueous perchloric acid was added to each well and the plates were centrifuged.
# [1] = biological target: T1, recombinant human BCAT2 enzyme (Homo sapiens, UniProt O15382); assay: In vitro assay 1b: BCAT2 biochemical assay (coupled LeuDH/NADH fluorescence readout); on BCAT2 IC50 [M]: recombinant human BCAT2 0.75 nM
# T1 construct: purchased ATGen (South Korea) ATGP1523
# T1 sequence (O15382 28-392): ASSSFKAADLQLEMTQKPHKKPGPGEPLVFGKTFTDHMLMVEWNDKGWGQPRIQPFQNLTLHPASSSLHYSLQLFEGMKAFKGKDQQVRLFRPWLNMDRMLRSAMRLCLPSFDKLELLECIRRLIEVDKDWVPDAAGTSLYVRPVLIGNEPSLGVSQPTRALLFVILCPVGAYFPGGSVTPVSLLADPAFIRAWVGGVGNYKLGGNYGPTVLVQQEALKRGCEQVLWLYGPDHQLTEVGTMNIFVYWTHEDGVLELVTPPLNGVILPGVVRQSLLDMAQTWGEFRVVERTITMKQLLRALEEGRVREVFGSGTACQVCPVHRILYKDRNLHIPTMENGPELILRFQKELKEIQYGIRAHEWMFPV
# Protocol: (§5) In Vitro Assay 1a and 1b: BCAT1 and BCAT2 Biochemical Assay
# (§6) BOAT (Branched chain amino acid transferase) catalyzes transamination of the branched chain amino acid leucine to α-ketoisocaproate (KIC). The BOAT enzymatic reaction was measured in a coupled readout with leucine dehydrogenase (LeuDH) which catalyzes the Nicotinamide adenine dinucleotide (NADH) dependent reduction of KIC to leucine. NADH consumption is measured by fluorescent readout.
# (§7) The biochemical reactions were performed at 32° C. in 384-well plates using a reaction volume of 51 μl and the following assay buffer conditions: 50 mM HEPES (2-[4-(2-hydroxyethyl)piperazin-1-yl]ethanesulfonic acid) pH 8.0, 50 mM aqueous solution of ammonium sulfate, 1 mM ethylenediaminetetraacetic acid, 2 mM dithiothreitol, 0.01% bovine serum albumine, 0.005% Brij 35 detergent, 0.5 μM PLP (pyridoxalphosphate), 10 μM NADH, and 50 μM α-ketoglutarate), and 100 μM leucine. […] Test compounds were used in a concentration range between 0.005 and 30 μM. The final DMSO concentration was 2%.
# (§8) The reaction was initiated by addition of substrates (Leucine, α-KG, NADH).
# [2] = biological target: T2, recombinant human BCAT1 enzyme (Homo sapiens, UniProt P54687); assay: In vitro assay 1a: BCAT1 biochemical assay (coupled LeuDH/NADH fluorescence readout)
# T2 construct: purchased ATGen (South Korea) ATGP1479
# T2 sequence (P54687 1-386): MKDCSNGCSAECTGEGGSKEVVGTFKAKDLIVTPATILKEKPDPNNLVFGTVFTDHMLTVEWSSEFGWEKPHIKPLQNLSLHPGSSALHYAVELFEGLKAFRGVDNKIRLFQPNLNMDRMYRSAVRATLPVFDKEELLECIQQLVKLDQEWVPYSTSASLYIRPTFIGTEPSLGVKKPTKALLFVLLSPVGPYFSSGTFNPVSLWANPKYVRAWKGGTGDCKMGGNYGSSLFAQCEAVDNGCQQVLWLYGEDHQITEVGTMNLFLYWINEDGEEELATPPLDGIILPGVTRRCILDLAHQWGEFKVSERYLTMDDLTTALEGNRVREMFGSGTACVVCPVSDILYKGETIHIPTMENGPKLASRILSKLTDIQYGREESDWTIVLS
# Protocol: as §5, §6, §7, §8
# MDA-MB231 cells = assay: In vitro assay 2: BCAT cellular assay, leucine in medium of MDA-MB231 cells; format: cell-based; conditions: 24 hours incubation, leucine level in medium (LeuDH/diaphorase/resazurin readout), read-out: MDAMB-231 IC50
# Protocol: as §1, §2, §3, §4
# [3] = recombinant human BCAT2 […], 32° C., 100 μM leucine, 50 μM α-ketoglutarate, NADH fluorescence over 90 min, read-out: BCAT2 IC50
# [4] = recombinant human BCAT1 […], 32° C., 100 μM leucine, 50 μM α-ketoglutarate, NADH fluorescence over 90 min, read-out: BCAT1 IC50
"IC50 (U87-MG cells; Homo sapiens, U-87 MG, 24 h)","IC50 [1, 3]","IC50 [2, 4]","IC50 (MDA-MB231 cells; Homo sapiens, MDA-MB-231, 24 h)",IC50 (MDA-MB231 cells),Structure (SMILES),IC50 ([2]; BCAT1 IC50 [M]),IC50 (U87-MG cells),IC50 ([1]; BCAT2 IC50 [M])
7.5 µM,,2.16e-06 M,9 µM,,"Cc1ccccc1Oc1cc(-n2c(=O)cc(-c3ccc(C(F)(F)F)cc3)[nH]c2=O)c(F)cc1C#N [Example 68, 4-{2,6-Dioxo-4-[4-(trifluoromethyl)phenyl]-3,6-dihydropyrimidin-1(2H)-yl}-5-fluoro-2-(2-methylphenoxy)benzonitrile]",,,
,4.33e-06 M,4.38e-07 M,> 30 µM,20 µM,"COc1cc(Cl)c(Oc2ccccc2C)cc1-n1c(=O)cc(C(F)(F)F)[nH]c1=O (racemic) [Example 27, 3-[4-Chloro-2-methoxy-5-(2-methylphenoxy)phenyl]-6-(trifluoromethyl)pyrimidine-2,4(1H,3H)-dione (rac)]",,,
,4.15e-06 M,6.97e-07 M,25 µM,,"Cc1cccc(C)c1Oc1cc(-n2c(=O)cc(C(F)(F)F)[nH]c2=O)ccc1C#N [Example 48, 2-(2,6-Dimethylphenoxy)-4-[2,6-dioxo-4-(trifluoromethyl)-3,6-dihydropyrimidin-1 (2H)-yl]benzonitrile]",,,
,5.5e-06 M,5e-07 M,> 30 µM,,"Cc1cccc(N)c1Oc1cc(-n2c(=O)cc(C(F)(F)F)[nH]c2=O)c(F)cc1C#N [Example 65, 2-(2-Amino-6-methylphenoxy)-4-[2,6-dioxo-4-(trifluoromethyl)-3,6-dihydropyrimidin-1(2H)-yl]-5-fluorobenzonitrile]",,,
> 30 µM,,4.5e-06 M,,,"COc1cc(C#N)c(Oc2ccccc2C)cc1-n1c(=O)cc(-c2ccc(C(F)(F)F)cc2)[nH]c1=O (racemic) [Example 69, 4-{2,6-Dioxo-4-[4-(trifluoromethyl)phenyl]-3,6-dihydropyrimidin-1(2H)-yl}-5-methoxy-2-(2-methylphenoxy)benzonitrile (rac)]",,,
2.95 µM,,1.35e-06 M,30 µM,,"Cc1ccccc1Oc1cc(-n2c(=O)cc(C(F)(F)C(F)(F)F)[nH]c2=O)c(F)cc1C#N [Example 52, 4-[2,6-dioxo-4-(pentafluoroethyl)-3,6-dihydropyrimidin-1(2H)-yl]-5-fluoro-2-(2-methylphenoxy)benzonitrile]",,,
,3.2e-06 M,6.5e-07 M,> 30 µM,,"Cc1ccccc1Oc1cc(-n2c(=O)cc(C(F)(F)F)[nH]c2=O)cnc1C#N [Example 47, 5-[2,6-Dioxo-4-(trifluoromethyl)-3,6-dihydropyrimidin-1(2H)-yl]-3-(2-methylphenoxy)pyridine-2-carbonitrile]",,,
> 30 µM,,1.75e-06 M,> 30 µM,,"Cc1ccccc1Oc1cc(-n2c(=O)cc(C(=O)NCC(F)(F)F)[nH]c2=O)c(F)cc1C#N [Example 71, 1-[4-Cyano-2-fluoro-5-(2-methylphenoxy)phenyl]-2,6-dioxo-N-(2,2,2-trifluoroethyl)-1,2,3,6-tetrahydropyrimidine-4-carboxamide]",,,

# Continued, compound first:
Structure (SMILES),"IC50 (U87-MG cells; Homo sapiens, U-87 MG, 24 h)","IC50 [1, 3]","IC50 [2, 4]","IC50 (MDA-MB231 cells; Homo sapiens, MDA-MB-231, 24 h)",IC50 (MDA-MB231 cells),IC50 ([2]; BCAT1 IC50 [M]),IC50 (U87-MG cells),IC50 ([1]; BCAT2 IC50 [M])
"COc1cc(C#N)c(Oc2ccccc2C)cc1-n1c(=O)cc(C(N)=O)[nH]c1=O (racemic) [Example 73, 1-[4-Cyano-2-methoxy-5-(2-methylphenoxy)phenyl]-2,6-dioxo-1,2,3,6-tetrahydropyrimidine-4-carboxamide (rac)]",> 30 µM,5.9e-06 M,9e-07 M,,,,,
"COc1cc(Cl)c(Oc2ccccc2Cl)cc1-n1c(=O)cc(C(F)(F)F)[nH]c1=O (racemic) [Example 50, 3-[4-Chloro-5-(2-chlorophenoxy)-2-methoxyphenyl]-6-(trifluoromethyl)pyrimidine-2,4(1H,3H)-dione (rac)]",3.6 µM,5e-06 M,7.5e-07 M,,,,,
"COc1cc(Cl)c(Oc2ccccc2C)cc1-n1c(=O)cc(C(F)F)[nH]c1=O (racemic) [Example 28, 3-[4-Chloro-2-methoxy-5-(2-methylphenoxy)phenyl]-6-(difluoromethyl)pyrimidine-2,4(1H,3H)-dione (rac)]",6.2 µM,3.5e-06 M,2.8e-07 M,,,,,
"COc1cc(C#N)c(Oc2ccccc2C)cc1-n1c(=O)cc(C(F)(F)F)[nH]c1=O (single isomer, unassigned) [Example 5, 4-[2,6-Dioxo-4-(trifluoromethyl)-3,6-dihydropyrimidin-1(2H)-yl]-5-methoxy-2-(2-methylphenoxy)benzonitrile (atrop 1)]",6 µM,,,,,1.13e-07 M,,
"Cc1ccccc1Oc1cc(-n2c(=O)cc(-c3cccc(Cl)c3)[nH]c2=O)c(F)cc1C#N [Example 70, 4-[4-(3-Chlorophenyl)-2,6-dioxo-3,6-dihydropyrimidin-1(2H)-yl]-5-fluoro-2-(2-methylphenoxy)benzonitrile]",30 µM,,1.33e-06 M,> 30 µM,,,> 30 µM,
"Cc1ccccc1Oc1cc(-n2c(=O)cc(C3CC3)[nH]c2=O)c(F)cc1C#N [Example 72, 4-(4-Cyclopropyl-2,6-dioxo-3,6-dihydropyrimidin-1(2H)-yl)-5-fluoro-2-(2-methylphenoxy)benzonitrile]",,2.5e-05 M,2e-06 M,> 30 µM,,,,
"Cc1ccccc1Oc1cc(-n2c(=O)cc(C(F)(F)F)[nH]c2=O)c(C)cc1C#N (single isomer, unassigned) [Example 8, 4-[2,6-Dioxo-4-(trifluoromethyl)-3,6-dihydropyrimidin-1 (2H)-yl]-5-methyl-2-(2-methylphenoxy)benzonitrile (atrop 1)]",,,,,,1.1e-06 M,6 µM,9e-06 M
"COc1cc(C#N)c(Oc2ccccc2C)cc1-n1c(=O)cc(Br)[nH]c1=O (single isomer, unassigned) [Example 20, 4-[4-Bromo-2,6-dioxo-3,6-dihydropyrimidin-1(2H)-yl]-5-methoxy-2-(2-methylphenoxy)benzonitrile (atrop 1)]",,2.3e-05 M,2.35e-06 M,,27 µM,,,
"Cc1ccccc1Oc1cc(-n2c(=O)cc(C(F)(F)F)[nH]c2=O)c(C)cc1C#N (single isomer, unassigned) [Example 9, 4-[2,6-Dioxo-4-(trifluoromethyl)-3,6-dihydropyrimidin-1(2H)-yl]-5-methyl-2-(2-methylphenoxy)benzonitrile (atrop 2)]",,,,,,8e-08 M,1.5 µM,9e-07 M
"Cc1ccccc1Oc1cc(-n2c(=O)cc(-c3ccccc3)[nH]c2=O)c(F)cc1C#N [Example 49, 4-(2,6-Dioxo-4-phenyl-3,6-dihydropyrimidin-1(2H)-yl)-5-fluoro-2-(2-methylphenoxy)benzonitrile]",,4.93e-06 M,6.98e-07 M,> 30 µM,,,,
"COc1cc(C#N)c(Oc2ccccc2C)cc1-n1c(=O)cc(-c2ccccc2)[nH]c1=O (racemic) [Example 42, 4-(2,6-Dioxo-4-phenyl-3,6-dihydropyrimidin-1(2H)-yl)-5-methoxy-2-(2-methylphenoxy)benzonitrile (rac)]",,1e-05 M,7.25e-07 M,> 30 µM,,,,
